± gives the expanded uncertainty stated by the source.
Assay: mn = molality of the nth substance listed, in mol/kg
Conditions: 303.15 K, 100 kPa, Liquid, Alternating current cell with electrodes

SMILES	electrical conductivity (m1 = 1e-05) [S/m]	electrical conductivity (m1 = 3e-05) [S/m]	electrical conductivity (m1 = 4e-05) [S/m]	electrical conductivity (m1 = 5e-05) [S/m]	electrical conductivity (m1 = 6e-05) [S/m]	electrical conductivity (m1 = 0.0001) [S/m]	electrical conductivity (m1 = 0.0005) [S/m]	electrical conductivity (m1 = 0.001) [S/m]	electrical conductivity (m1 = 0.005) [S/m]	electrical conductivity (m1 = 0.01) [S/m]	electrical conductivity (m1 = 0.015) [S/m]	electrical conductivity (m1 = 0.002) [S/m]	other results
CCCCCCCCCC[N+](CC)(CC)CCCCCCCCCC.[Br-] [didecyldiethylammonium bromide] + O	0.00039 ± 0.00019	0.00072 ± 0.0003	0.00143 ± 0.00058	0.00224 ± 0.0009	0.00293 ± 0.0012	0.0034 ± 0.0014	0.0048 ± 0.0019	0.0092 ± 0.0037	0.0106 ± 0.0042	0.0132 ± 0.0053	0.016 ± 0.0064	–	electrical conductivity (m1 = 2e-05): 0.0006 ± 0.00025 S/m; electrical conductivity (m1 = 0.02): 0.0182 ± 0.0073 S/m
CCCCCCCCCCCCCCCC[N+](C)(C)C.[Br-] [N,N,N-trimethyl-1-hexadecanaminium bromide] + O	–	–	–	–	–	–	0.0061 ± 0.0024	0.011 ± 0.0044	–	–	–	0.0145 ± 0.0058	electrical conductivity (m1 = 0.0002): 0.0028 ± 0.0011 S/m; electrical conductivity (m1 = 0.0008): 0.0092 ± 0.0037 S/m; electrical conductivity (m1 = 0.00085): 0.01 ± 0.004 S/m; electrical conductivity (m1 = 0.0009): 0.0103 ± 0.0041 S/m; electrical conductivity (m1 = 0.0012): 0.012 ± 0.0048 S/m; electrical conductivity (m1 = 0.0014): 0.0128 ± 0.0051 S/m; electrical conductivity (m1 = 0.0016): 0.0135 ± 0.0054 S/m
CCCCCCCCCCCC[N+](C)(C)C.[Br-] [dodecyltrimethylammonium bromide] + O	–	–	–	–	–	–	–	0.014 ± 0.0056	0.055 ± 0.022	0.1 ± 0.04	0.15 ± 0.06	–	electrical conductivity (m1 = 0.012): 0.12 ± 0.048 S/m; electrical conductivity (m1 = 0.0181): 0.165 ± 0.066 S/m; electrical conductivity (m1 = 0.0201): 0.165 ± 0.066 S/m; electrical conductivity (m1 = 0.0252): 0.18 ± 0.072 S/m; electrical conductivity (m1 = 0.0302): 0.195 ± 0.078 S/m; electrical conductivity (m1 = 0.0402): 0.23 ± 0.092 S/m; electrical conductivity (m1 = 0.0502): 0.26 ± 0.1 S/m
CCCCCCCCCCCCCCCC[N+](CC)(CC)CCCCCCCCCCCCCCCC.[Br-] [diethyldihexadecylammonium bromide] + O	0.00081 ± 0.00035	0.00114 ± 0.00046	0.00124 ± 0.0005	0.00132 ± 0.00053	0.00136 ± 0.00054	–	–	–	–	–	–	–	electrical conductivity (m1 = 5e-06): 0.00045 ± 0.00023 S/m; electrical conductivity (m1 = 1.5e-05): 0.00106 ± 0.00042 S/m
CCCCCCCCCCCC[N+](CC)(CC)CCCCCCCCCCCC.[Br-] [didodecyldiethylammonium bromide] + O	–	0.00146 ± 0.00059	0.00189 ± 0.00076	0.0025 ± 0.001	0.0032 ± 0.0013	0.00362 ± 0.0014	0.00484 ± 0.0019	0.00678 ± 0.0027	–	–	–	0.00928 ± 0.0037	electrical conductivity (m1 = 0.003): 0.0121 ± 0.0049 S/m

From the NIST ThermoML archive (doi:10.1021/acs.jced.5b00367)
